In the supplement of paper PMC12370961:

What was measured:
Test in all cases: differential drug sensitivity score (dDSS) relative to sarcoma reference cohort mean DSS (DSS units (0-100 scale difference)); higher = more selective sensitivity than reference sarcomas
Conditions in all cases: exposure time: 72 h; concentration range: 10-10000 nM
ES-ZH008 = test system: ES-ZH008 (patient-derived Ewing sarcoma tumoroid)
Description: (§1)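 Drug response profiling of patient-derived Ewing sarcoma and CIC::DUX4 sarcoma tumoroid models (or cells tested directly after isolation from the tumor, 'direct'). The DSS is the normalised AUC (0-100); dDSS is the sample DSS minus the mean DSS of a 34-sarcoma reference cohort profiled in the same lab.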

CDS-ZH002 = test system: CDS-ZH002 (patient-derived CIC-DUX4 sarcoma tumoroid)
Description: as §1

ES-ZH016 direct = test system: ES-ZH016 direct (Ewing sarcoma cells right after isolation)
Description: as §1

ES-ZH009 = test system: ES-ZH009 (patient-derived Ewing sarcoma tumoroid)
Description: as §1

CDS-ZH001 = test system: CDS-ZH001 (patient-derived CIC-DUX4 sarcoma tumoroid)
Description: as §1

ES-ZH016 = test system: ES-ZH016 (patient-derived Ewing sarcoma tumoroid)
Description: as §1

CDS-ZH003 = test system: CDS-ZH003 (patient-derived CIC-DUX4 sarcoma tumoroid)
Description: as §1

ES-ZH004 = test system: ES-ZH004 (patient-derived Ewing sarcoma tumoroid)
Description: as §1

ES-ZH007 = test system: ES-ZH007 (patient-derived Ewing sarcoma tumoroid)
Description: as §1

ES-ZH002 = test system: ES-ZH002 (patient-derived Ewing sarcoma tumoroid)
Description: as §1

CDS-ZH001-2 = test system: CDS-ZH001-2 (patient-derived CIC-DUX4 sarcoma tumoroid)
Description: as §1

CDS-ZH002 direct = test system: CDS-ZH002 direct (CIC-DUX4 sarcoma cells right after isolation)
Description: as §1

ES-ZH001 = test system: ES-ZH001 (patient-derived Ewing sarcoma tumoroid)
Description: as §1

| SMILES | differential drug sensitivity score (ES-ZH008) | differential drug sensitivity score (CDS-ZH002) | differential drug sensitivity score (ES-ZH016 direct) | differential drug sensitivity score (ES-ZH009) | differential drug sensitivity score (CDS-ZH001) | differential drug sensitivity score (ES-ZH016) | differential drug sensitivity score (CDS-ZH003) | differential drug sensitivity score (ES-ZH004) | differential drug sensitivity score (ES-ZH007) | differential drug sensitivity score (ES-ZH002) | differential drug sensitivity score (CDS-ZH001-2) | differential drug sensitivity score (CDS-ZH002 direct) | differential drug sensitivity score (ES-ZH001) |
| --- | --- | --- | --- | --- | --- | --- | --- | --- | --- | --- | --- | --- | --- |
| Cn1c(=O)n(-c2ccc(C(C)(C)C#N)cc2)c2c3cc(-c4cnc5ccccc5c4)ccc3ncc21 [Dactolisib] | -0.5 | -0.4 | -7.5 | 13.6 | 3.3 | -2.5 | 3.4 | 1 | 1.5 | 5 | 1.3 | 1.1 | 3 |
| CC(=O)Nc1cccc(-n2c(=O)n(C3CC3)c(=O)c3c(Nc4ccc(I)cc4F)n(C)c(=O)c(C)c32)c1 [Trametinib] | 4.1 | -3.5 | -3.5 | -3.5 | -3.5 | -3.5 | 3.2 | 1.5 | -3.5 | 9.5 | -3.5 | -3.5 | 3.2 |
| Cn1ncnc1[C@H]1c2n[nH]c(=O)c3cc(F)cc(c23)N[C@@H]1c1ccc(F)cc1 [Talazoparib] | 24.9 | -5.9 | 18.1 | 11.3 | -1.8 | 24.4 | 0.3 | 21.6 | 25.9 | 28.8 | 8.2 | -2.2 | 26.5 |
| C[C@H](NC(=O)CCC(F)(F)F)C(=O)N[C@@H]1C(=O)N(CCO)c2ncccc2-c2ccccc21 [Crenigacestat] | 6.4 | -0.2 | 1 | -2.3 | -2.3 | -2.3 | -2.3 | 5.8 | -2.3 | 13.6 | 0.3 | -0.6 | 5.8 |
| CCc1ccc(/C=C2/SC(=S)NC2=O)cc1 | -1.6 | 2.3 | 4 | 3.1 | 3.2 | 5.6 | -1.6 | -2.1 | -1.2 | 1.2 | 1 | -2.1 | -2.1 |
| O=[P@]1(N(CCCl)CCCl)N[C@H](OO)CCO1 [Hydroperoxycyclophosphamide] | 6.5 | -3.6 | 4.6 | -1 | -0.7 | 2.2 | -4.1 | 6.4 | 0.2 | 7.7 | -2.3 | -3.6 | 1.7 |
| CCC(=O)N1CCN(c2ccc(-n3c(=O)ccc4cnc5ccc(-c6cnc7ccccc7c6)cc5c43)cc2C(F)(F)F)CC1 [Torin-1] | 0.8 | -4 | -6.9 | 6.3 | 4.9 | -1.2 | 4.4 | -2.7 | -0.5 | 6.9 | 1.9 | -8.4 | -3.5 |
| CCN1CCN(c2ccc(Nc3cc(N(C)C(=O)Nc4c(Cl)c(OC)cc(OC)c4Cl)ncn3)cc2)CC1 [Infigratinib] | -6.1 | -6.1 | 1.6 | -0.1 | -1.9 | -4 | -1.3 | -3.9 | -3.2 | 2 | -1.1 | 2.3 | -4 |
| O=C(CCCCCCC(=O)Nc1ccccc1)NO [Vorinostat] | 5.1 | -3.6 | 5.3 | 6.6 | -4 | -0.7 | 3.3 | 7.3 | 6.3 | 8 | 0.5 | -0.2 | 9.5 |
| CC[C@@]1(O)C(=O)OCc2c1cc1n(c2=O)Cc2cc3c(CN(C)C)c(O)ccc3nc2-1 [Topotecan] | 10.8 | -2.7 | 7.3 | 15.8 | 5.3 | 19.6 | 8 | 16.4 | 19.4 | 20.1 | 3.4 | -4.9 | 19.4 |
| S=c1[nH]cnc2nc[nH]c12 [Mercaptopurine] | -1.6 | -1.3 | 4.9 | 7.4 | 3.8 | 2.9 | -5 | -4.2 | -0.4 | 0.3 | 12 | -1.8 | 0.9 |
| O=C(O)C(=O)O.[NH-][C@@H]1CCCC[C@H]1[NH-].[Pt+2] [Oxaliplatin] | 2.9 | 5.9 | -5 | -5 | 2.2 | 1.2 | -4.8 | 0.2 | 1 | -2 | 5.9 | 7.7 | -0.1 |
| CO[C@H]1C[C@@H]2CC[C@@H](C)[C@@](O)(O2)C(=O)C(=O)N2CCCC[C@H]2C(=O)O[C@H]([C@H](C)C[C@@H]2CC[C@@H](OC(=O)C(C)(CO)CO)[C@H](OC)C2)CC(=O)[C@H](C)/C=C(\C)[C@@H](O)[C@@H](OC)C(=O)[C@H](C)C[C@H](C)/C=C/C=C/C=C/1C [Temsirolimus] | 3.1 | -7 | -6.2 | 11.1 | 0.8 | -3 | 2.1 | 8.3 | 5.9 | 15.8 | 4 | 4.8 | 6.2 |
